Data taken from patent US7071316B1, “Human Akt-3” (Janssen Pharmaceutica N.V., priority 1998, dated 2006).
“And” between values parts separate entries of the source, which are not always exact repeats. Equal entries are not always repeated. Each block holds one molecule with its values, some of them ahead of it.

Experiments:
Akt-3 [1] = experiment: Activation of HA-tagged Akt-3 by IGF in transfected HEK-293 cells (immunoprecipitate, Crosstide phosphorylation); format: cell-based, human
Protocol: FIG. 3 is an illustration of phosphorylation of histone H2B by Akt-3 variants. (A) Akt-3 was expressed as a GST fusion protein in E. Coli. To assess hAkt-3 activity, Histone H2B was incubated with GST-Akt-3 and GST-Akt-3 variants for the indicated time and the extent of phosphorylation assessed after SDS-PAGE. The variants of Akt-3 are designated: W.T., wild type; T305D, Thr^305 mutated to Asp; S472D, Ser^472 mutated to Asp; T305D,S472D, both Thr^305 and Ser^472 mutated to Asp. No significant phosphorylation was observed when GST was used in place of GST-Akt. […] Samples were analysed by blotting for the HA-tag (upper panel) or with a phosphospecific antibody which recognises phosphorylated ser^472 (lower panel). (C) Akt activity in HA-immuno-precipitates from samples prepared as described above was assessed by measuring phosphorylation of a peptide substrate (Crosstide). The results are expressed as the increase in activity compared to unstimulated cells transfected with empty vector (mean±s.e.m., n=7).
For expression in HEK-293 cells, cells were transfected with pCDNA-3 Akt-3 constructs as described previously (Alessi et al 1996). […] Akt activity was assessed in immune complexes by measuring phosphorylation of a peptide substrate (Crosstide) in the presence of 1 μM PKI (PKA inhibitor) and 1 μM […] (PKC inhibitor) as described.

[2] = molecular target: T1, T305D,S472D variant of Akt-3 (Homo sapiens, UniProt Q9Y243, S472D/T305D); experiment: Akt-3 histone H2B phosphorylation assay (GST fusion protein from E. coli, phosphorimager after SDS-PAGE); format: biochemical; conditions: for effect on the activity of the T305D,S472D variant of Akt-3: tested at a concentration of 10 FM
T1 construct: made in house; host or cells: E. coli BL21 DE3 (pGEX-4T-3)
Protocol: After 30 minutes, the reaction was terminated and the extent of H2B phosphorylation quantified on a phosphorimager following SDS-PAGE.
The pGEX expression constructs were transformed into E. coli strain BL21 DE3 and GST-fusion proteins of wild-type and mutated Akt-3 were purified on glutathione sepharose according to the manufacturers instructions (Amersham Pharmacia Biotech, Uppsala, Sweden). The protein eluted from the beads was stored in 50% glycerol at −20° C. Akt activity was assessed by incubating 0.8 Fg of the purified enzyme for 30 minutes at room temperature (unless otherwise indicated) in a buffer containing 10 mM HEPES, 10 mM MgCl2, 1 mM DTT, 0.1 mg/ml histone H2B at pH 7.0, in a total volume of 25 Fl and containing 10 FCi [γ-^32P]-ATP (6000 Ci/mmol). […] The reaction was stopped by the addition of 25 Fl sample buffer for SDS-PAGE. The results were quantified on a phosphorimager following SDS-PAGE on a 15% (w/v) acrylamide gel.

PKC [3] = conditions: Davis, et al., 1992; cited from earlier work
PKC [4] = experiment: Inhibition of PKC (literature, Davis et al., 1992); format: biochemical; conditions: more potent inhibitor of PKC than of Akt-3
histone H2B [5] = tested on: histone H2B
Akt-3 [6] = experiment: Activation of HA-tagged Akt-3 by IGF-1 in transfected Cos-7 cells (HA immunoprecipitates); format: cell-based, human; conditions: stimulation with IGF-1 10 ng/ml, n=2
Protocol: Akt-3 was transiently expressed in Cos-7 by calcium phosphate transfection of the cells with the construct HA-hAkt-3/pcDNA-3. The cells were stimulated with 10 ng/ml IGF-1 for 30 minutes, lysed and Akt-3 immunoprecipitated with mAb 12CA5. Akt-3 activity was assessed as described below.

histone H2B [7] = molecular target: histone H2B; remark: listed apart in the source

T1 sequence (Q9Y243 whole entry T305D/S472D, the tested form may be a part): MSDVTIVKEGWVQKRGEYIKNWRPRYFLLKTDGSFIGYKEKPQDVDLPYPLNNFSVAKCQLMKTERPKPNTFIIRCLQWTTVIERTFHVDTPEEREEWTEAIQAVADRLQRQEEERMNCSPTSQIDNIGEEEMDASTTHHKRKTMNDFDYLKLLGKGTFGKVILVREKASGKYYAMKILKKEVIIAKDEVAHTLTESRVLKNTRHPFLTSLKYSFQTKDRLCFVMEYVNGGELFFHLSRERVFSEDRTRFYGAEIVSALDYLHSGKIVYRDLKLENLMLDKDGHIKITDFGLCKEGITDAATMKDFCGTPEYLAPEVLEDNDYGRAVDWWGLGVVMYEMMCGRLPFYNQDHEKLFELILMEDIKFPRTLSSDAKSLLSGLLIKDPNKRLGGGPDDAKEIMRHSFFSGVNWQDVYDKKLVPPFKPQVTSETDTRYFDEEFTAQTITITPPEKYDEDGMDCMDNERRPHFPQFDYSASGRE

Molecule: O=c1cc(N2CCOCC2)oc2c(-c3ccccc3)cccc12 [CY29 4002]
inhibition of activation of Akt-3 (Akt-3 [1]; prior treatment, 100 FM, HEK-293 cells stimulated with IGF, data not shown): 94%

Molecule: CN(C)CCCn1cc(C2=C(c3c[nH]c4ccccc34)C(=O)NC2=O)c2ccccc21 [GF-109203×]
effect on the activity of the T305D,S472D variant of Akt-3 [2]: no significant effect

effect on the activity of the T305D,S472D variant of Akt-3 [2]: no significant effect
Molecule: Cn1c2ccccc2c2c3c(c4c5ccccc5n(CCC#N)c4c21)CNC3=O [Go 6976]

effect on the activity of the T305D,S472D variant of Akt-3 [2]: no significant effect
Molecule: O=S(=O)(NCCNCC=Cc1ccccc1)c1cccc2cnccc12 [H-88]

effect on the activity of the T305D,S472D variant of Akt-3 [2]: no significant effect
Molecule: O=S(=O)(NCCNC/C=C/c1ccc(Br)cc1)c1cccc2cnccc12 [H-89]

effect on the activity of the T305D,S472D variant of Akt-3 [2]: no significant effect
Molecule: CN([C@@H](Cc1ccc(OS(=O)(=O)c2cccc3cnccc23)cc1)C(=O)N1CCN(c2ccccc2)CC1)S(=O)(=O)c1cccc2cnccc12 [KN-62]

effect on the activity of the T305D,S472D variant of Akt-3 [2]: no significant effect
Molecule: CCCCCCOC(=O)[C@]1(O)C[C@@H]2O[C@@]1(C)n1c3ccccc3c3c4c(c5c6ccccc6n2c5c31)C(=O)NC4 [KT5720]

effect on the activity of the T305D,S472D variant of Akt-3 [2]: no significant effect
Molecule: COc1cccc(-c2cc(=O)c3ccccc3o2)c1N [PD 98059]

Molecule: Cn1cc(C2=C(c3cn(CCCSC(=N)N)c4ccccc34)C(=O)NC2=O)c2ccccc21 [Ro 31-8220]
inhibition of Akt-3 (in words) ([2]; discussion summary of the inhibitor panel): potently inhibited
IC50 (PKC [3]): 0.1 nM
potency as inhibitor of PKC relative to Akt-3 (PKC [4]): approximately 100 fold

Molecule: GST-Akt-3 S472D (construct hAKT-3(S472D)/pGEX-4T-3)
initial rate of phosphorylation of histone H2B, relative to the wild-type enzyme (histone H2B [5]): increased the initial rate only 1.4 fold

Molecule: GST-Akt-3 T305D (construct hAKT-3(T305D)/pGEX-4T-3)
initial rate of phosphorylation of histone H2B, relative to the wild-type enzyme (histone H2B [5]): 2.0-fold increase

Molecule: GST-Akt-3 T305D,S472D (construct hAKT-3(T305D/S472D)/pGEX-4T-3)
initial rate of phosphorylation of histone H2B, relative to the wild-type enzyme (histone H2B [5]): 3.2-fold increase

Molecule: IGF-1: extracellular stimulus (growth factor) used to activate Akt-3 in transfected cells
increase of Akt-3 activity in HA immunoprecipitates (Akt-3 [6]): 1.5 fold and 1.9 fold
increase of Akt-3 activity in anti-HA immunoprecipitates (Akt-3 [1]; upon treatment with IGF (50 ng/ml), above that in untransfected cells, HEK-293): ~60 fold

B1: GST-Akt-3 wild type (construct hAKT-3(WT)/pGEX-4T-3) (protein)
chain: MSDVTIVKEGWVQKRGEYIKNWRPRYFLLKTDGSFIGYKEKPQDVDLPYPLNNFSVAKCQLMKTERPKPNTFIIRCLQWTTVIERTFHVDTPEEREEWTEAIQAVADRLQRQEEERMNCSPTSQIDNIGEEEMDASTTHHKRKTMNDFDYLKLLGKGTFGKVILVREKASGKYYAMKILKKEVIIAKDEVAHTLTESRVLKNTRHPFLTSLKYSFQTKDRLCFVMEYVNGGELFFHLSRERVFSEDRTRFYGAEIVSALDYLHSGKIVYRDLKLENLMLDKDGHIKITDFGLCKEGITDAATMKTFCGTPEYLAPEVLEDNDYGRAVDWWGLGVVMYEMMCGRLPFYNQDHEKLFELILMEDIKFPRTLSSDAKSLLSGLLIKDPNKRLGGGPDDAKEIMRHSFFSGVNWQDVYDKKLVPPFKPQVTSETDTRYFDEEFTAQTITITPPEKYDEDGMDCMDNERRPHFPQFSYSASGRE
phosphorylation of histone H2B (histone H2B [7]): The purified enzyme was able to phosphorylate histone H2B
